In PubChem BioAssay (NCI) one finds GI50 and TGI data, which are given here for twelve molecules.

Some test systems named below: U251 CNS; HCT-15 colon; LOX IMVI melanoma; SNB-78 CNS; EKVX NSCLC; OVCAR-4 ovarian; ACHN renal; LXFL 529 NSCLC; SNB-19 CNS; NCI-H226 lung.
Common to all, as to test: inhibition of tumour cell growth, NCI panel, 48 h

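Briefly, cells in 96-well plates were exposed to five compound concentrations for 48 h, and endpoints were estimated by linear interpolation. The concentration for 50% growth inhibition is given as GI50. At the TGI there is no net growth.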

On to `[O-]c1ccccc1[C-]=Nc1ccccc1O.[O-]c1ccccc1[C-]=Nc1ccccc1O.[O]=[U]=[O]`, for which the GI50 in the assay on U251 CNS is 11.6 µM; in the assay on HCT-15 colon it was 3.56 µM; in the assay on LOX IMVI melanoma it was 9.82 µM; in the assay with SNB-78 CNS, 21.3 µM; in the assay with EKVX NSCLC, 24 µM; in the assay on OVCAR-4 ovarian, 12.1 µM. In addition, the figures for the GI50 in the assay on ACHN renal and with LXFL 529 NSCLC were 9.09 µM and 4.11 µM, respectively. In addition, the TGI in the assay on U251 CNS was found to be 33.6 µM; in the assay with HCT-15 colon it was 36.3 µM; in the assay with LOX IMVI melanoma it was 68 µM; with SNB-78 CNS, 61.2 µM; with EKVX NSCLC, 62.4 µM; in the assay with OVCAR-4 ovarian, 46.8 µM. Also, the TGI in the assay with ACHN renal worked out at 26.7 µM; with LXFL 529 NSCLC, 34.8 µM.

Regarding `CCCCCCCCCCCCCCCCSS(C)(=O)=O`, the TGI with SNB-19 CNS is above 100 µM; in the assay with U251 CNS, above 100 µM; with HCT-15 colon, 39.2 µM; with LOX IMVI melanoma, 19.3 µM; in the assay on NCI-H226 lung, above 35.3 µM; in the assay with EKVX NSCLC, above 100 µM. The figures for the TGI in the assay on OVCAR-4 ovarian, with ACHN renal and in the assay with LXFL 529 NSCLC were 54.7 µM, 32.3 µM and 26.3 µM, respectively.

Take `CC1(OCc2ccccc2)C(=O)N2C1N(C(=O)OCc1ccccc1)CC2(C)C` (configuration not stated): the TGI with SNB-19 CNS, in the assay with U251 CNS, in the assay with HCT-15 colon, in the assay with LOX IMVI melanoma, in the assay with NCI-H226 lung and in the assay with EKVX NSCLC was above 100 µM each time. Besides, the TGI with OVCAR-4 ovarian, with ACHN renal and with LXFL 529 NSCLC was above 100 µM in each case.

As for `CCCCN1C(=O)C2c3[nH]c4ccccc4c3C3CCCCC3C2C1=O` (mixture of isomers), the TGI in the assay on SNB-19 CNS is 64.2 µM; in the assay with U251 CNS it was 36.3 µM; with HCT-15 colon, above 100 µM; in the assay with LOX IMVI melanoma, 24.1 µM; in the assay on SNB-78 CNS, 50 µM; in the assay with EKVX NSCLC, 66.8 µM. Also, the TGI with OVCAR-4 ovarian stood at 8.22 µM; with ACHN renal, 27.7 µM; in the assay on LXFL 529 NSCLC it was 29.1 µM.

As for `Cc1ccc2oc(=O)cc(CC(=O)O)c2c1`, the TGI in the assay on SNB-19 CNS, with U251 CNS, in the assay on HCT-15 colon, in the assay with LOX IMVI melanoma, in the assay on NCI-H226 lung and with EKVX NSCLC was above 100 µM each time. Besides, the TGI with OVCAR-4 ovarian, in the assay with ACHN renal and in the assay on LXFL 529 NSCLC was above 100 µM in each case.

`CCOC(=O)C1Nc2ccc([N+](=O)[O-])cc2[C@H]2OCC[C@@H]12` (some centres not stated): the TGI in the assay on SNB-19 CNS, with U251 CNS, in the assay on HCT-15 colon, with LOX IMVI melanoma, in the assay with SNB-78 CNS and in the assay on NCI-H226 lung was above 100 µM throughout. In addition, the TGI in the assay on EKVX NSCLC, with OVCAR-4 ovarian and with ACHN renal was above 100 µM in each case.

Turning to `CCOc1ccc(NC(=O)/C(Cc2nc3ccccc3[nH]c2=O)=N\O)cc1`, the TGI in the assay on SNB-19 CNS, in the assay on U251 CNS, in the assay with HCT-15 colon, with LOX IMVI melanoma, in the assay with SNB-78 CNS and in the assay on EKVX NSCLC was above 100 µM throughout. Further, the TGI in the assay with OVCAR-4 ovarian, in the assay on ACHN renal and in the assay on LXFL 529 NSCLC was above 100 µM each time.

In the case of `COc1cc(-c2nn(-c3ccc(NC(=O)Nc4ccc(Cl)c(C(F)(F)F)c4)cc3)cc2-c2ccncc2)ccc1Cl`, the GI50 was 2.53 µM in the assay on SNB-19 CNS; 1.21 µM in the assay with U251 CNS; 1.44 µM in the assay with HCT-15 colon; 1.43 µM in the assay on LOX IMVI melanoma; 2.14 µM in the assay on NCI-H226 lung; 1.1 µM with EKVX NSCLC. Also, the GI50 with OVCAR-4 ovarian is 2.34 µM; in the assay with ACHN renal, 2.02 µM. The TGI is 8.13 µM with SNB-19 CNS; 2.62 µM in the assay on U251 CNS; 3.22 µM in the assay with HCT-15 colon; 2.78 µM in the assay on LOX IMVI melanoma; 7.22 µM in the assay on NCI-H226 lung; 3.95 µM with EKVX NSCLC. The results for the TGI with OVCAR-4 ovarian and in the assay with ACHN renal were 8.45 µM and 9.71 µM, respectively.

With `CCN(CC)c1ccc(CNc2cc(C)nc3ccc(OC)cc23)cc1`, the GI50 in the assay with SNB-19 CNS was 3.98 µM; with U251 CNS, 2.04 µM; in the assay on HCT-15 colon, 3.11 µM; in the assay with LOX IMVI melanoma, 1.67 µM; in the assay on NCI-H226 lung, 3.12 µM; in the assay with EKVX NSCLC, 3.14 µM. The figures for the GI50 with OVCAR-4 ovarian and in the assay on ACHN renal were 5 µM and 2.63 µM, respectively. Moreover, the TGI in the assay on SNB-19 CNS came to 16.3 µM; with U251 CNS, 4.3 µM; in the assay on HCT-15 colon, 10.8 µM; in the assay on LOX IMVI melanoma, 3.47 µM; in the assay on NCI-H226 lung it was 14.4 µM; in the assay on EKVX NSCLC, 15.3 µM. For the same molecule, the figures for the TGI in the assay on OVCAR-4 ovarian and in the assay on ACHN renal were 16.5 µM and 7.17 µM, respectively.

In the case of `COc1ccc(C2CC(c3ccc4ccccc4c3)=NN2/C=C2\SC(=S)N(NC(=O)Cc3ccccc3Nc3c(Cl)cccc3Cl)C2=O)cc1` (configuration not stated), the GI50 in the assay with SNB-19 CNS is 0.636 µM; in the assay with U251 CNS it was 0.402 µM; in the assay on HCT-15 colon, 0.467 µM; in the assay with LOX IMVI melanoma, 0.556 µM; in the assay with NCI-H226 lung, 1.14 µM; in the assay on EKVX NSCLC it was 1.45 µM. Further, the values for the GI50 in the assay on OVCAR-4 ovarian and in the assay with ACHN renal were 1.2 µM and 0.684 µM, respectively. In addition, the TGI in the assay on SNB-19 CNS is above 46.8 µM; in the assay on U251 CNS, above 36.7 µM; with HCT-15 colon, above 65.1 µM; in the assay on LOX IMVI melanoma it was above 54 µM; in the assay with NCI-H226 lung it was above 32.3 µM; in the assay on EKVX NSCLC it was above 61.5 µM. Also, the TGI was above 48 µM in the assay on OVCAR-4 ovarian and above 71.5 µM in the assay with ACHN renal.

In the case of `COc1ccc(-c2cc(=O)c3c(OC)c(O)c(OC)cc3o2)cc1`, the TGI in the assay with SNB-19 CNS, in the assay on U251 CNS, in the assay with HCT-15 colon, in the assay on LOX IMVI melanoma, in the assay on NCI-H226 lung and in the assay on EKVX NSCLC was above 100 µM throughout. Further, the TGI in the assay with OVCAR-4 ovarian and in the assay on ACHN renal was above 100 µM in each case.

Take `C/C(=N\NC(=O)c1cccc(S(=O)(=O)N2CCN(C)CC2)c1)c1cc(Cl)ccc1O`: the GI50 in the assay with SNB-19 CNS is 2.03 µM; with U251 CNS, 0.414 µM; in the assay on HCT-15 colon it was 0.27 µM; in the assay with LOX IMVI melanoma, 0.518 µM; with NCI-H226 lung it was 0.713 µM; in the assay on EKVX NSCLC it was 0.354 µM. For the same molecule, the figures for the GI50 in the assay with OVCAR-4 ovarian and in the assay with ACHN renal were 0.545 µM and 0.46 µM, respectively. Further, the TGI in the assay with SNB-19 CNS is above 100 µM; in the assay on U251 CNS, above 100 µM; in the assay with HCT-15 colon, above 43.6 µM; in the assay on LOX IMVI melanoma, 13 µM; in the assay with NCI-H226 lung, 8.42 µM; in the assay with EKVX NSCLC it was above 63.1 µM. For the same molecule, the TGI in the assay on OVCAR-4 ovarian and with ACHN renal was above 100 µM throughout.
